{"source": "patent US20220395522A1", "about": "“Methods of Use of Glucosamine for Increasing Nitrogen Retention” (TSI Bioproducts (Xuzhou) Co., Ltd., priority 2021, published 2022)", "experiment": "Gastrointestinal Symptom Rating Scale (GSRS)", "assay_type": "in vivo, human", "conditions": "for Abdom Pain (combined score of GSRS 1, GSRS4, and GSRS5) / Diarrhea (combined score of GSRS11 and GSRS14) / GSRS1 Pain and discomfort in upper abdomen or stomach / GSRS2 Heartburn / GSRS3 Acid reflux / GSRS4 Hunger pangs / GSRS5 Nausea / GSRS6 Stomach rumbling / GSRS7 Stomach bloating / GSRS8 Burping / GSRS9 Passing gas or flatulence / GSRS11 Diarrhea / GSRS14 Urgent need to have a bowel movement / GSRS15 Sensation of not completely emptying the bowels / Ingestion (combined score of GSRS6, GSRS7, GSRS8, and GSRS9) / Reflux (combined score of GSRS2 and GSRS3) / Constipation (combined score of GSRS10, GSRS13, and GSRS14), 'Constipation Syndrome' / GSRS10 Constipation / GSRS13 Hard stools: GLU condition, mean ± SD; for Constipation (combined score of GSRS10, GSRS13, and GSRS14), 'Constipation Syndrome' / GSRS10 Constipation / GSRS13 Hard stools: hydrochloride", "text": "The remainder of the study consisted of two identical patterns of testing with the exception of what supplementation protocol was followed. FIG. 1 provides a flowchart of the experimental design. Prior to each visit, food and physical activity logs were completed encompassing four days prior to the scheduled laboratory visit. The four days consisted of two weekend days and two weekdays. Each participant reported to the laboratory for a baseline measurement of height, weight, heart rate, and blood pressure. During this visit, participants completed the Bristol Stool Chart and Gastrointestinal Symptom Rating Scale (GSRS) to assess bowel habits and potential gastrointestinal symptoms. Participants were given instructions on how to collect a stool sample and were instructed to do so within 24 hours of each planned study visit. At the completion of this study visit, participants were provided with their first assigned supplement (either PLA [placebo] or GLU [glucosamine]) and instructed to begin supplementation 21 days prior to their second visit. Participants were instructed to collect their second stool sample on the day of their final supplementation dose. On the morning of their second study visit, participants reported to the laboratory after following identical pre-study instructions as previous visits (i.e., fasting, abstention from caffeine and exercise). Study participants again completed assessments for height, weight, heart rate, blood pressure, and questionnaires regarding their bowel habits and gastrointestinal symptoms while also providing their second stool sample and turning in completed food and activity logs. A washout period lasting a minimum of 14 days and a maximum of 21 days separated each phase of the crossover as shown in FIG. 1. […] In a double-blind manner, a glucosamine supplement (GLU) or a maltodextrin placebo (PLA) was distributed in identical opaque capsules to all participants. On a daily basis, participants were instructed to ingest three capsules, each containing 1,000 mg of glucosamine hydrochloride (GlucosaGreen®, TSI Group Ltd. MT, USA) or a placebo (maltodextrin) identical in appearance for a total of 21 days. Each visit at the beginning of the supplementation regimen (Visits 1 and 4, respectively; See FIG. 1) occurred on or before the first day of supplementation while the final day of supplementation occurred the day before each participant's follow-up visit for that study period (Visits 2 and 4, respectively). Participants were instructed to ingest the supplement 15-30 minutes before breakfast with eight fluid ounces of cold water. In the case of a missed dose, participants were instructed to consume the missed dose as soon as possible with a meal. […] The dose of maltodextrin used in the following examples was two to five-fold lower, respectively, than these investigations. Participants completed electronic (Qualtrics, Inc.) versions of the Bristol Stool Chart and the Gastrointestinal Symptoms Rating Scale (GSRS) at four time points throughout the entire study protocol. The first two questionnaires were completed before and after the first supplementation period while the final two questionnaires were collected before and after the second supplementation period. The Bristol Stool Chart requires participants to classify their bowel movements into one of seven different types of stool. Type 1 was classified as being “Separate hard lumps, like nuts (hard to pass)”, Type 2 being “Sausage-shaped, lumpy, uncomfortable to pass”, Type 3 being “Like a sausage, with cracks on its surface”, Type 4 being “Like a sausage or snake, smooth and soft”, Type 5 being “Soft blobs with clear-cut edges, passes easily”, Type 6 being “Fluffy pieces with ragged edges, a mushy stool”, and Type 7 being “Watery, no solid pieces, entirely liquid”. The Gastrointestinal Symptoms Rating Scale (GSRS), a 15-item clinical rating scale was completed a total of four times to assess symptoms related to gastrointestinal distress during the past week. […]", "key": {"[1]": {"conditions": "Post 21 days, 3 x 1,000 mg/day oral"}}}
{"compound": "Cl.N[C@H]1C(O)O[C@H](CO)[C@@H](O)[C@@H]1O", "note": "(stereo partly shown) [GLU, glucosamine hydrochloride]", "values": [{"measurement": "Abdom Pain (combined score of GSRS 1, GSRS4, and GSRS5)", "setting": "[1]", "result": "4.18 ± 1.66"}, {"measurement": "Diarrhea (combined score of GSRS11 and GSRS14)", "setting": "[1]", "result": "3.27 ± 1.56"}, {"measurement": "GSRS1 Pain and discomfort in upper abdomen or stomach", "setting": "[1]", "result": "1.5 ± 0.7"}, {"measurement": "GSRS2 Heartburn", "setting": "[1]", "result": "1.2 ± 0.4"}, {"measurement": "GSRS3 Acid reflux", "setting": "[1]", "result": "1.2 ± 0.4"}, {"measurement": "GSRS4 Hunger pangs", "setting": "[1]", "result": "1.18 ± 0.4"}, {"measurement": "GSRS5 Nausea", "setting": "[1]", "result": "1.55 ± 1.21"}, {"measurement": "GSRS6 Stomach rumbling", "setting": "[1]", "result": "2.2 ± 1.3"}, {"measurement": "GSRS7 Stomach bloating", "setting": "[1]", "result": "2.1 ± 1.22"}, {"measurement": "GSRS8 Burping", "setting": "[1]", "result": "1.2 ± 0.4"}, {"measurement": "GSRS9 Passing gas or flatulence", "setting": "[1]", "result": "2.46 ± 1.21"}, {"measurement": "GSRS11 Diarrhea", "setting": "[1]", "result": "1.73 ± 1.56"}, {"measurement": "GSRS14 Urgent need to have a bowel movement", "setting": "[1]", "result": "1.55 ± 0.93"}, {"measurement": "GSRS15 Sensation of not completely emptying the bowels", "setting": "[1]", "result": "1.09 ± 0.3"}, {"measurement": "Ingestion (combined score of GSRS6, GSRS7, GSRS8, and GSRS9)", "setting": "[1]", "result": "7.91 ± 2.98"}, {"measurement": "Reflux (combined score of GSRS2 and GSRS3)", "setting": "[1]", "result": "2.36 ± 0.67"}, {"measurement": "Constipation (combined score of GSRS10, GSRS13, and GSRS14), 'Constipation Syndrome'", "setting": "[1]", "result": "3.27±0.9"}, {"measurement": "GSRS10 Constipation", "setting": "[1]", "result": "1.09±0.3"}, {"measurement": "GSRS13 Hard stools", "setting": "[1]", "result": "1.09±0.3"}, {"measurement": "Abdom Pain (combined score of GSRS 1, GSRS4, and GSRS5)", "setting": "Pre (baseline)", "result": "4.27 ± 1.68"}, {"measurement": "Diarrhea (combined score of GSRS11 and GSRS14)", "setting": "Pre (baseline)", "result": "2.27 ± 0.9"}, {"measurement": "GSRS1 Pain and discomfort in upper abdomen or stomach", "setting": "Pre (baseline)", "result": "1.2 ± 0.4"}, {"measurement": "GSRS2 Heartburn", "setting": "Pre (baseline)", "result": "1.1 ± 0.3"}, {"measurement": "GSRS3 Acid reflux", "setting": "Pre (baseline)", "result": "1.0 ± 0.0"}, {"measurement": "GSRS4 Hunger pangs", "setting": "Pre (baseline)", "result": "1.82 ± 0.98"}, {"measurement": "GSRS5 Nausea", "setting": "Pre (baseline)", "result": "1.27 ± 0.9"}, {"measurement": "GSRS6 Stomach rumbling", "setting": "Pre (baseline)", "result": "1.5 ± 0.69"}, {"measurement": "GSRS7 Stomach bloating", "setting": "Pre (baseline)", "result": "1.9 ± 1.22"}, {"measurement": "GSRS8 Burping", "setting": "Pre (baseline)", "result": "1.2 ± 0.4"}, {"measurement": "GSRS9 Passing gas or flatulence", "setting": "Pre (baseline)", "result": "1.82 ± 0.75"}, {"measurement": "GSRS11 Diarrhea", "setting": "Pre (baseline)", "result": "1.0 ± 0.0"}, {"measurement": "GSRS14 Urgent need to have a bowel movement", "setting": "Pre (baseline)", "result": "1.27 ± 0.9"}, {"measurement": "GSRS15 Sensation of not completely emptying the bowels", "setting": "Pre (baseline)", "result": "1.73 ± 1.1"}, {"measurement": "Ingestion (combined score of GSRS6, GSRS7, GSRS8, and GSRS9)", "setting": "Pre (baseline)", "result": "6.45 ± 2.5"}, {"measurement": "Reflux (combined score of GSRS2 and GSRS3)", "setting": "Pre (baseline)", "result": "2.09 ± 0.3"}, {"measurement": "Constipation (combined score of GSRS10, GSRS13, and GSRS14), 'Constipation Syndrome'", "setting": "Pre (baseline)", "result": "5.09±3.45"}, {"measurement": "GSRS10 Constipation", "setting": "Pre (baseline)", "result": "1.82±1.4"}, {"measurement": "GSRS13 Hard stools", "setting": "Pre (baseline)", "result": "1.55±1.04"}, {"measurement": "Abdom Pain combined score, %", "setting": "PLA vs. GLU, between-group", "result": 4.2, "unit": "%"}, {"measurement": "Constipation combined score, %", "setting": "PLA vs. GLU, between-group", "result": "−33.3", "unit": "%"}, {"measurement": "Diarrhea combined score, %", "setting": "PLA vs. GLU, between-group", "result": 30.6, "unit": "%"}, {"measurement": "GSRS1, %", "setting": "PLA vs. GLU, between-group", "result": 31.3, "unit": "%"}, {"measurement": "GSRS2, %", "setting": "PLA vs. GLU, between-group", "result": "−0.9", "unit": "%"}, {"measurement": "GSRS3, %", "setting": "PLA vs. GLU, between-group", "result": 20.0, "unit": "%"}, {"measurement": "GSRS4, %", "setting": "PLA vs. GLU, between-group", "result": "−11.3", "unit": "%"}, {"measurement": "GSRS5, %", "setting": "PLA vs. GLU, between-group", "result": 35.4, "unit": "%"}, {"measurement": "GSRS6, %", "setting": "PLA vs. GLU, between-group", "result": 37.6, "unit": "%"}, {"measurement": "GSRS7, %", "setting": "PLA vs. GLU, between-group", "result": "−30.7", "unit": "%"}, {"measurement": "GSRS8, %", "setting": "PLA vs. GLU, between-group", "result": "−10", "unit": "%"}, {"measurement": "GSRS9, %", "setting": "PLA vs. GLU, between-group", "result": 8.8, "unit": "%"}, {"measurement": "GSRS10, %", "setting": "PLA vs. GLU, between-group", "result": "−64.9", "unit": "%"}, {"measurement": "GSRS11, %", "setting": "PLA vs. GLU, between-group", "result": 55.0, "unit": "%"}, {"measurement": "GSRS13, %", "setting": "PLA vs. GLU, between-group", "result": "−15.5", "unit": "%"}, {"measurement": "GSRS14, %", "setting": "PLA vs. GLU, between-group", "result": 13.0, "unit": "%"}, {"measurement": "GSRS15, %", "setting": "PLA vs. GLU, between-group", "result": "−23.8", "unit": "%"}, {"measurement": "Ingestion combined score, %", "setting": "PLA vs. GLU, between-group", "result": "−0.4", "unit": "%"}, {"measurement": "Reflux combined score, %", "setting": "PLA vs. GLU, between-group", "result": 8.4, "unit": "%"}, {"measurement": "Stomach bloating ratings (GSRS7), change from baseline", "setting": "Post vs Pre, p=0.32", "result": "no changes were observed"}]}
